Consider 19 compounds from patent US20130030012A1, “COMPOUNDS” (Glaxo Group Limited, priority 2011, published 2013).

Read-outs that look alike come from different tables or passages of the source. Bounds are passed on as bounds.

The target of test [1] is T1, recombinant human Lp-PLA2 (Homo sapiens, UniProt Q13093).
T1 sequence (Q13093 22-441): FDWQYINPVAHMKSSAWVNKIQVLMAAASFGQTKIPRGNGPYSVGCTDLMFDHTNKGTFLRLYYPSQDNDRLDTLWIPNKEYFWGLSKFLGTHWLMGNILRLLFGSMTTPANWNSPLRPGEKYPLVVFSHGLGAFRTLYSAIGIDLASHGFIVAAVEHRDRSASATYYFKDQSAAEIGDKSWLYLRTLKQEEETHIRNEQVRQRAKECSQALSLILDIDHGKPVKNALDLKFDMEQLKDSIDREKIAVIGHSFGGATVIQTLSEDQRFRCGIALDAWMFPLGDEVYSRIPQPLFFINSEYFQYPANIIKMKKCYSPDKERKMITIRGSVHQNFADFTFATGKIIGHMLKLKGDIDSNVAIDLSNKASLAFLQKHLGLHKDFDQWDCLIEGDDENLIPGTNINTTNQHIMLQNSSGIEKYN
Kind of test: Recombinant human Lp-PLA2 assay (rhLp-PLA2, PED6 assay). It is filed as biochemical. The note with it: upper limit for pIC50 in this assay is 9.3. The text has this:
(1) Recombinant Human Lp-PLA2 Assay (rhLp-PLA2) (Also Referred to as “PED6” Assay)
N-((6-(2,4-dinitrophenyl)amino)-hexanoyl)-2-(4,4-difluoro-5,7-dimethyl-4-bora-3a,4a-diaza-s-indacene-3-pentanoyl)-1-hexadecanoyl-sn-glycero-3-phosphoethanolamine, triethylammonium salt (PED6) is a commercially available fluorescently-labeled phospholipid, which is commercially available from Invitrogene and Molecular Probes. There is a quenching […] and a Bodipy fluorescein (FL) group in the sn2 position. Upon cleavage with Lp-PLA2, the Bodipy FL group is liberated and then may result in an increase in fluorescence. Inhibitors of Lp-PLA2 therefore prevent this cleavage and no fluorescent increase is observed.
The PED6 assay was run as an unquenched 10 μL assay. The source plate containing the compounds to be tested was prepared by making 1:3 (by volume) serial dilution of the compounds within DMSO on 384-well microplate. Then, 0.01 μL of the compounds on compound source plate were transferred into 384 well Greiner 784076 (black) plates using ECHO liquid dispenser. 5 μL of recombinant human Lp-PLA2 enzyme (4 nM (or 110 pM) rhLp-PLA2 in assay buffer of 50 mM HEPES, pH 7.4, 150 mM NaCl, 1 mM CHAPS) was added to each well of the plate. Plates were centrifuged for 10 sec at 500 rpm. After 30 minutes preincubation, 5 μL of substrate ([…] (or 5 μM) PED6 [from 5 mM DMSO stock] in assay buffer of 50 mM HEPES, pH 7.4, 150 mM NaCl, 1 mM CHAPS) was added to 384 well Greiner 784076 (black) plates. Plates were centrifuged for 10 sec at 500 rpm. The plate was covered to protect it from light and incubated for 20 min at room temperature. The plates were read for fluorescence intensity at ex: 480/em: 540 using ViewLux microplate imager for Envision spectrofluoroimeters pIC50 data, curve and QC analysis was conducted by using XL fit module in Excel.
The compounds described below were tested generally according to the PED6 assay described above.

A further test concerns the target T2, Lp-PLA2 in human plasma (Homo sapiens, UniProt Q13093).
T2 construct: from tissue; host or cells: pooled human plasma
T2 sequence (Q13093 22-441): T1 sequence (Q13093 22-441)
Kind of test: Lp-PLA2 human plasma assay (Thio-PAF assay). The format is biochemical. As to conditions: pooled human plasma; read-out: pIC50 values in the thio-PAF assay (converted). The text has this:
The human plasma assay utilizes a thioester analog of PAF (phosphatidylcholine), where hydrolysis yields to the formation of a phospholipid containing a free thiol group. The amount of thiol is quantitated continuously by reacting with CPM (7-diethylamino-3-(4′-maleimidylphenyl)-4-methylcoumarin), a maleimide which increases in fluoresence after Michael addition of thiols. This assay may detect the activity of Lp-PLA2 in human plasma, as determined by specific inhibition by Lp-PLA2 inhibitors.
The thio-PAF assay was run as a quenched 15 μL assay. Compounds source plate was prepared by making 1:3 (by volume) serial dilution of the compounds into pure DMSO on 384-well microplate. 0.01 μL of compounds on compound source plate were transferred to 384 well Greiner 784076 (black) low-volume plates by ECHO liquid dispenser. 8 μL pooled human plasma, which was previously aliquoted and frozen, was added. Plates were centrifuged for 10 sec at 500 rpm. After 30 minutes preincubation, 2 μL of substrate solution comprising 2.5 mM 2-thio-PAF [from ethanol stock], […] CPM [from a DMSO stock] and 3.2 mM NEM (N-ethylmaleimide) [made fresh daily in DMSO] in assay buffer of 50 mM HEPES, pH 7.4, 150 mM NaCl, 1 mM CHAPS was added to 384 well Greiner 784076 (black) low-volume plates by BRAVO liquid handling station. After 2 mins, reaction was quenched with 5 μL of 5% aqueous trifluoroacetic acid (TFA). Plates were covered to protect from light and incubated for 40 min at room temperature. Plates were read at ex: 380/em: 485 using—Envision microplate reader. pIC50 data, curve and QC analysis was conducted by using XLFit module in Excel.

[2] abbreviates: read-out: pIC50 values in the PED6 assay (converted).
The mark [3] stands for this setting: Table 1, read-out: rhLp-PLA2 (PED6 assay) (pIC50) (converted).

As for `CN1CCCn2c1cc(OCCc1ccc(Oc3cccc(C(F)(F)F)c3)c(F)c1)nc2=O` [Example 105, 8-(3-fluoro-4-(3-(trifluoromethyl)phenoxy)phenethoxy)-1-methyl-3,4-dihydro-1H-pyrimido[1,6-a]pyrimidin-6(2H)-one], the figures for the IC50 (in test [1] (setting [2]); on Lp-PLA2 in human plasma) were ≤ 1 nM and ≤ 100 nM, respectively.
For the compound `O=c1nc(OCc2ccc(Oc3ccc(Cl)c(C(F)(F)F)c3)c(F)c2)cc2n1CCCN2` [Example 97, 8-((4-(4-chloro-3-(trifluoromethyl)phenoxy)-3-fluorobenzyl)oxy)-3,4-dihydro-1H-pyrimido[1,6-a]pyrimidin-6(2H)-one], the results for the IC50 (in test [1] (setting [2]); at Lp-PLA2 in human plasma) were ≤ 1 nM and ≤ 100 nM, respectively.
For the compound `O=c1nc(OCc2ccc(Oc3cccc(F)c3)c(F)c2)cc2n1CCCN2` [Example 116, 8-((3-fluoro-4-(3-fluorophenoxy)benzyl)oxy)-3,4-dihydro-1H-pyrimido[1,6-a]pyrimidin-6(2H)-one], the IC50 was ≤ 1 nM in test [1] (setting [2]) and ≤ 100 nM on Lp-PLA2 in human plasma.
For the compound `CN1CCCn2c1cc(OCc1ccc(Oc3cccc(F)c3)c(F)c1)nc2=O` [Example 25, 8-((3-fluoro-4-(3-fluorophenoxy)benzyl)oxy)-1-methyl-3,4-dihydro-1H-pyrimido[1,6-a]pyrimidin-6(2H)-one], the IC50 in test [1] (setting [2]) was ≤ 10 nM; at Lp-PLA2 in human plasma, ≤ 1000 nM.
As for `CN1CCCn2c1cc(OCc1ccc(Oc3ccc(F)cc3)c(F)c1)nc2=O` [Example 74, 8-((3-fluoro-4-(4-fluorophenoxy)benzyl)oxy)-1-methyl-3,4-dihydro-1H-pyrimido[1,6-a]pyrimidin-6(2H)-one], the IC50 in test [1] (setting [2]) was ≤ 10 nM; on Lp-PLA2 in human plasma it was ≤ 1000 nM.
The matching figures for `CN1CCCn2c1cc(OCc1ccc(Oc3ccc(C(F)(F)F)cc3)c(C#N)c1)nc2=O` [Example 29, 5-(((1-methyl-6-oxo-2,3,4,6-tetrahydro-1H-pyrimido[1,6-a]pyrimidin-8-yl)oxy)methyl)-2-(4-(trifluoromethyl)phenoxy)benzonitrile]: ≤ 10 nM and ≤ 100 nM.
On to `CN1CCCn2c1cc(OCc1cc(F)c(Oc3ccc(C(F)(F)F)nc3)c(F)c1)nc2=O` [Example 3, 8-((3,5-difluoro-4-((6-(trifluoromethyl)pyridin-3-yl)oxy)benzyl)oxy)-1-methyl-3,4-dihydro-1H-pyrimido[1,6-a]pyrimidin-6(2H)-one], for which the IC50 is 1 nM in test [1] (setting [3]), ≤ 1 nM in test [1] (setting [2]) and ≤ 100 nM on Lp-PLA2 in human plasma.
As to `CN1CCCn2c1cc(OCc1cc(F)c(Oc3ccc(C(F)(F)F)cc3)c(F)c1)nc2=O` [Example 89, 8-((3,5-difluoro-4-(4-(trifluoromethyl)phenoxy)benzyl)oxy)-1-methyl-3,4-dihydro-1H-pyrimido[1,6-a]pyrimidin-6(2H)-one], the IC50 in test [1] (setting [2]) is ≤ 10 nM; on Lp-PLA2 in human plasma, ≤ 100 nM.
With `CN1CCCn2c1cc(OCc1ccc(Oc3ccc(Cl)nc3)c(F)c1)nc2=O` [Example 95, 8-((4-((6-chloropyridin-3-yl)oxy)-3-fluorobenzyl)oxy)-1-methyl-3,4-dihydro-1H-pyrimido[1,6-a]pyrimidin-6(2H)-one], the IC50 in test [1] (setting [2]) was ≤ 1 nM; at Lp-PLA2 in human plasma, ≤ 100 nM.
The corresponding values for `CN1CCCn2c1cc(OCc1ccc(Oc3cccc(C(F)(F)F)n3)c(F)c1)nc2=O` [Example 32, 8-((3-fluoro-4-((6-(trifluoromethyl)pyridin-2-yl)oxy)benzyl)oxy)-1-methyl-3,4-dihydro-1H-pyrimido[1,6-a]pyrimidin-6(2H)-one] are ≤ 10 nM and ≤ 1000 nM.
On to `O=c1nc(OCc2ccc(F)c(F)c2)cc2n1CCCN2` [Example 99, 8-((3,4-difluorobenzyl)oxy)-3,4-dihydro-1H-pyrimido[1,6-a]pyrimidin-6(2H)-one], for which the IC50 in test [1] (setting [2]) is ≤ 10 nM; on Lp-PLA2 in human plasma it was ≤ 100 nM.
For `N#Cc1cc(COc2cc3n(c(=O)n2)CCCN3)ccc1Oc1cccc(C(F)(F)F)c1` [Example 53, 5-(((6-oxo-2,3,4,6-tetrahydro-1H-pyrimido[1,6-a]pyrimidin-8-yl)oxy)methyl)-2-(3-(trifluoromethyl)phenoxy)benzonitrile], the IC50 in test [1] (setting [3]) was 1 nM; in test [1] (setting [2]), ≤ 1 nM; at Lp-PLA2 in human plasma it was ≤ 100 nM.
The matching figures for `CN1CCCn2c1cc(OCc1ccc(Oc3cc(F)cc(F)c3)c(F)c1)nc2=O` [Example 58, 8-((4-(3,5-difluorophenoxy)-3-fluorobenzyl)oxy)-1-methyl-3,4-dihydro-1H-pyrimido[1,6-a]pyrimidin-6(2H)-one]: < 0.501 nM, ≤ 1 nM and ≤ 100 nM.
With `N#Cc1cc(COc2cc3n(c(=O)n2)CCCN3)ccc1Oc1ccc(C(F)(F)F)cn1` [Example 92, 5-(((6-oxo-2,3,4,6-tetrahydro-1H-pyrimido[1,6-a]pyrimidin-8-yl)oxy)methyl)-2-((5-(trifluoromethyl)pyridin-2-yl)oxy)benzonitrile], the figures for the IC50 (in test [1] (setting [2]); at Lp-PLA2 in human plasma) were ≤ 10 nM and ≤ 100 nM, respectively.
In the case of `CN1CCCn2c1cc(OCc1ccc(Oc3ccc(F)c(Cl)c3)cc1)nc2=O` [Example 17, 8-((4-(3-chloro-4-fluorophenoxy)benzyl)oxy)-1-methyl-3,4-dihydro-1H-pyrimido[1,6-a]pyrimidin-6(2H)-one], the IC50 in test [1] (setting [2]) was ≤ 10 nM; at Lp-PLA2 in human plasma it was ≤ 1000 nM.
As to `CN1CCCn2c1cc(OCc1ccc(Oc3cccc(Cl)c3)c(F)c1)nc2=O` [Example 16, 8-((4-(3-chlorophenoxy)-3-fluorobenzyl)oxy)-1-methyl-3,4-dihydro-1H-pyrimido[1,6-a]pyrimidin-6(2H)-one], the IC50 in test [1] (setting [2]) is ≤ 10 nM; at Lp-PLA2 in human plasma, ≤ 100 nM.
The corresponding values for `CN1CCCn2c1cc(OCc1cc(F)c(Oc3ccc(F)cc3)c(F)c1)nc2=O` [Example 87, 8-((3,5-difluoro-4-(4-fluorophenoxy)benzyl)oxy)-1-methyl-3,4-dihydro-1H-pyrimido[1,6-a]pyrimidin-6(2H)-one] are ≤ 10 nM and ≤ 1000 nM.
Take `CN1CCCn2c1cc(OCc1ccc(Oc3cccc(C(F)(F)F)c3)c(C#N)c1)nc2=O` [Example 1, 5-(((1-methyl-6-oxo-2,3,4,6-tetrahydro-1H-pyrimido[1,6-a]pyrimidin-8-yl)oxy)methyl)-2-(3-(trifluoromethyl)phenoxy)benzonitrile]: the IC50 in test [1] (setting [2]) is ≤ 10 nM; on Lp-PLA2 in human plasma, ≤ 100 nM.
Regarding `CN1CCCn2c1cc(OCc1ccc(Oc3ccc(F)c(Cl)c3)c(C#N)c1)nc2=O` [Example 84, 2-(3-chloro-4-fluorophenoxy)-5-(((1-methyl-6-oxo-2,3,4,6-tetrahydro-1H-pyrimido[1,6-a]pyrimidin-8-yl)oxy)methyl)benzonitrile], the IC50 in test [1] (setting [2]) was ≤ 1 nM; at Lp-PLA2 in human plasma it was ≤ 100 nM.
